Tests used:
cJun bZIP = assay: CD spectroscopy, binding to cJun bZIP (helicity of heterodimer); set-up: species or system human; conditions: 20 °C, total peptide 10 μM equimolar, pH 7.4
Source text: Experiments were next undertaken to compare the binding of A-FosW and TBS-optimized HingeW to the cJun bZIP. CD spectroscopy was utilized to measure the global secondary structure of homo- and heterodimeric peptide samples, providing information on global α-helicity and thermal denaturation temperatures (Tm). The HingeW/cJun spectrum was 82% higher in α-helical content relative to the average of the two-component spectra (Figure 5A). […] This occurs as the total peptide concentration of the sample is kept constant (10 μM), meaning that the concentration of each component is halved upon mixing. If a sample component structure is unchanged upon mixing (i.e., no binding occurs), the CD signal for each component will average. The same, though smaller, trend was observed from the A-FosW/cJun spectra, where the α-helicity was 39% greater than the average (Figure 5B). This increased α-helical gain upon binding of HingeW/cJun implies a higher affinity interaction. Of note is that HingeW in isolation is 12.9% less helical relative to A-FosW. The AGADIR helical propensity calculator was used to calculate predicted helicity scores of 14.5 and 13.2 for A-FosW and HingeW, respectively.[42] […]
increased to the optimum 4 µM in subsequent passages. […] This allows the occurrence of library members to be monitored as winner sequences are selected for. […]

cJun = molecular target: T1, cJun (Homo sapiens, UniProt P05412); assay: Isothermal titration calorimetry, binding to cJun; conditions: ITC, average of two independent experiments, one SD
T1 construct: The human cJun bZIP domain spans from Arg252 to Leu308; His-SUMO (N, cleaved yes); AS cap (two residues Ala-Ser) (N); GAP cap (three residues Gly-Ala-Pro) (C); made in house; host or cells: E. coli (pET21-His-SUMO plasmid)
Procedure: Isothermal Titration Calorimetry (ITC): Peptides were studied in an ITC buffer consisting of 10 mM potassium phosphate, 150 mM potassium fluoride and 5 mM TCEP at pH 7.4. Using a MicroCal VP-ITC instrument (Malvern), 10 µL injections of antagonist peptide (HingeW or A-FosW) at 10 µM were injected into the cell containing cJun at 1 µM.
MicroCal Origin software was used to record and analyse the heat change upon addition.
Control experiments involved the injection of the antagonist peptide sample into the cell containing ITC buffer alone to determine the heat of dilution which was subtracted. The resulting binding data were fit to a one site binding model to extract the enthalpy change of binding (ΔH) and the equilibrium binding constant (K D), from which the free energy change of binding (ΔG) and the entropy change of binding (ΔS) was calculated (41).
Thermodynamic parameters are presented as an average of two independent experiments with errors given as one standard deviation. […]

T1 sequence (P05412 252-308): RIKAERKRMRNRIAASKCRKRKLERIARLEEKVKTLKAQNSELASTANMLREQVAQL

Q: Which “increase in α-helical content of heterodimer with cJun relative to average of component spectra” value (cJun bZIP; 150 mM potassium phosphate, 150 mM KF, 5 mM TCEP) does the source give for “LEQRAEELARENEELEKEAEELEQELDELQAEIEQLEERNYALRKEIEDLQKQLEKL [A-FosW, N-terminal AS and C-terminal GAP caps, 6xHis-tagged]” here?
A: 39%

Q: And the “Fraction helicity of heterodimer with cJun” value (cJun bZIP)?
A: 38.7%

Q: What about the Kd (cJun; 10 µM antagonist peptide injected into 1 µM cJun, 10 mM potassium phosphate, 150 mM KF, 5 mM TCEP, pH 7.4, one site model) of the same sequence?
A: 88.3 ± 17.6 nM

Q: And the TΔS (cJun)?
A: −112.6 ± 4.1 kJ mol^–1

Q: What about the ΔH (cJun) of the same sequence?
A: −152.6 ± 4.1 kJ mol^–1

Q: What about the “N (binding stoichiometry)” value (cJun; single-site binding model) of the same sequence?
A: 1.04 ± 0.08

— publication PMC9088798, “An Approach to Derive Functional Peptide Inhibitors of Transcription Factor Activity” (JACS Au, 2022)
